# Measurements published in paper doi:10.1101/2024.08.29.610163v8, “Structural Snapshots of B12-Dependent Methionine Synthase’s Catalytic Conformations” (biorxiv, 2026).
# Where a chain is given by its changes, count along the chain named.
# How the values were obtained:
# [1] = target: T1, tMS^HcyFolCapCob (Thermus thermophilus, UniProt Q5SKM5, F110A/E123A/E124A/Y296A/D651A/P652A/G653A); assay: X-ray crystal structure, […] Å; format: binding; details: pre-Hcy-on, prCbl holoenzyme, mutant 1
# T1 construct: gene TTHA0618; Hcy-Fol-Cap-Cob tetradomain, lacks Act domain; N-terminal His6 tag cut with TEV; about 95 kDa monomer; E. coli BL21star(DE3)
# T1 sequence (Q5SKM5 1-877 F110A/E123A/E124A/Y296A/D651A/P652A/G653A): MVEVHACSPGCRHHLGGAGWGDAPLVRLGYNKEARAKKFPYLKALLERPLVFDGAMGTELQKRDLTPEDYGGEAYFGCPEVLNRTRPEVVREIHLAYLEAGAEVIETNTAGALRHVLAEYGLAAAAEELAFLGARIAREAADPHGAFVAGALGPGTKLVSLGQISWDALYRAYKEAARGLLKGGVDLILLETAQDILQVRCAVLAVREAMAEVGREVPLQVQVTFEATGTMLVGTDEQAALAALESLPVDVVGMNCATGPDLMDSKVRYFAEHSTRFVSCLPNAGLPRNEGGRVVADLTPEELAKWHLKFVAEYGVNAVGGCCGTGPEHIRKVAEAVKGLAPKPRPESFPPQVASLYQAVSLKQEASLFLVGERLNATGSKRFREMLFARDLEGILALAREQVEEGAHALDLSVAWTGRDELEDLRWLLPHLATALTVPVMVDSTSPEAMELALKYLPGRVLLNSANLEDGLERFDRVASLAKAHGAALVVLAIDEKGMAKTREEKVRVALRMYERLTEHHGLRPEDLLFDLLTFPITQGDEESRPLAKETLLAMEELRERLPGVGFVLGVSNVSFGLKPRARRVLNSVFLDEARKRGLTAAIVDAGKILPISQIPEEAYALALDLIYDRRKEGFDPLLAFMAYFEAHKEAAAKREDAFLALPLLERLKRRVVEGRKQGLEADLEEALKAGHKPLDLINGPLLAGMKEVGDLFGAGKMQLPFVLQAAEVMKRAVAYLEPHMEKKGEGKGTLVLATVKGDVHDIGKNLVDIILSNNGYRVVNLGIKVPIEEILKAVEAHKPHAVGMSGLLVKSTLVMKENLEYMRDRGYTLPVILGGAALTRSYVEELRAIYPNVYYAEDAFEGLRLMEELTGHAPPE
# [2] = target: T2, tMS^ΔN35Hcy (tMS^Hcy) (Thermus thermophilus, UniProt Q5SKM5); assay: UV-Vis methylcobalamin consumption; format: biochemical; details: 100 µM homocysteine; 20 µM free MeCbl; 2 µM enzyme; pH 7.4, 0.5 mM TCEP, 50 °C
# T2 construct: gene TTHA0618; isolated Hcy domain lacking N-terminal 35 residues; N-terminal His6-TEV tag, no cut described; E. coli BL21star(DE3)
# T2 sequence (Q5SKM5 36-340 limits assumed): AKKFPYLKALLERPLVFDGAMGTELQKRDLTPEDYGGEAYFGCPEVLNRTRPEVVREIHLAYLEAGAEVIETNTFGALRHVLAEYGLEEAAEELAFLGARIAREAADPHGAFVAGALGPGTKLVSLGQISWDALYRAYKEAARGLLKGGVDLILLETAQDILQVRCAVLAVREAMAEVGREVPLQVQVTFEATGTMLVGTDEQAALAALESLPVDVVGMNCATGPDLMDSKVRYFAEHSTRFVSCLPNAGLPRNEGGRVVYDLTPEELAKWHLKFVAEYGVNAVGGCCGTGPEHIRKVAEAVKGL
# [3] = target: T3, tMS^HcyFol (Thermus thermophilus, UniProt Q5SKM5); assay: UV-Vis methylcobalamin consumption; format: biochemical; details: 100 µM homocysteine; 23 µM CapCob-bound MeCbl or 20 µM free MeCbl; 2 µM enzyme; pH 7.4, 0.5 mM TCEP, 50 °C
# T3 construct: gene TTHA0618; Hcy-Fol didomain; N-terminal His6-TEV tag, no cut described; E. coli BL21star(DE3)
# T3 sequence (Q5SKM5 1-640 limits assumed): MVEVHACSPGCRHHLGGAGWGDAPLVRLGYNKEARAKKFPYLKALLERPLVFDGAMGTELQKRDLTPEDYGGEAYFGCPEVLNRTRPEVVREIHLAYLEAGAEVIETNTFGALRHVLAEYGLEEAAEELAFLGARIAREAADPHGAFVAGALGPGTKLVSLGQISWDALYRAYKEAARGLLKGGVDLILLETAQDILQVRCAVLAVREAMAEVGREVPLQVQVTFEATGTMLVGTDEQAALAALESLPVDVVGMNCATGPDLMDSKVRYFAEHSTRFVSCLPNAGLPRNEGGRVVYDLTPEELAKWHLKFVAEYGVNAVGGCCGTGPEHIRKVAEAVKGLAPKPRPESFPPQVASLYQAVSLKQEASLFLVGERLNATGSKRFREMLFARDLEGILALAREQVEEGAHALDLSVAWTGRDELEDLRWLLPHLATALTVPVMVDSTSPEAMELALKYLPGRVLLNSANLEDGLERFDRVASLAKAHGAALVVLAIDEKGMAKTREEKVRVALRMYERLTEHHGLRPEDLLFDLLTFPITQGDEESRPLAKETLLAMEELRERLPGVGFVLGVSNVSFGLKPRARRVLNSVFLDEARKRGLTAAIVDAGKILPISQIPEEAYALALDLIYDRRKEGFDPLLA
# [4] = target: T4, tMS^HcyFolCapCob (Thermus thermophilus, UniProt Q5SKM5, F110A/E123A/E124A/R268A/D651A/P652A/G653A/D759A/N774H/R826A); assay: X-ray crystal structure, […] Å; format: binding; details: Hcy-on; aeCbl holoenzyme; co-purified; Fol domain; mutant 2
# T4 construct: gene TTHA0618; Hcy-Fol-Cap-Cob tetradomain, lacks Act domain; N-terminal His6 tag cut with TEV; about 95 kDa monomer; E. coli BL21star(DE3)
# T4 sequence (Q5SKM5 1-877 F110A/E123A/E124A/R268A/D651A/P652A/G653A/D759A/N774H/R826A): T1 sequence (Q5SKM5 1-877 F110A/E123A/E124A/Y296A/D651A/P652A/G653A) with R268A, A296Y, D759A, N774H, R826A
Structure (SMILES),"X-ray crystal structure, 2.45 Å ([1]; Hcy domain site)",UV-Vis methylcobalamin consumption [2],UV-Vis methylcobalamin consumption [3],"X-ray crystal structure, 2.38 Å [4]","X-ray crystal structure, 2.45 Å ([1]; co-purified, Fol domain)"
N[C@@H](CCS)C(=O)O [homocysteine],HCY was found bound in the pre-Hcy-on structure (9CBP),Consumption of exogenous methylcobalamin was detected in the presence of both tMS ^HcyFol and tMS^Hcy,consumption of methylcobalamin when bound to tMS^CapCob was observed with tMS^HcyFol,–,–
Nc1nc2c(c(=O)[nH]1)N[C@@H](CNc1ccc(C(=O)N[C@@H](CCC(=O)O)C(=O)O)cc1)CN2 [tetrahydrofolate],–,–,–,"pre-Hcy-on (Cap-on, 9CBP) and Hcy-on (9CBR) states copurified with the folate demethylation byproduct","tetradomain did yield a folate-bound structure, modelled as tetrahydrofolate (Ligand ID THG)"
